# Data: US20070128217A1 (priority 2003, published 2007)
# Key:
# [1] = system: antibodies in sera from SARS patients (sera 1a, 1b, 2, 6, 37, 62, London, SARS-yellow, SARS-green); assay type: binding, human; parameters: Binding of serum 6 to linear peptides of protein X1 of SARS-CoV Urbani / Binding of serum 37 to linear peptides of protein X1 of SARS-CoV Urbani / Binding of serum 6 to looped/cyclic peptide (PEPSCAN-ELISA) / Binding of serum 37 to looped/cyclic peptide (PEPSCAN-ELISA) / Binding of serum 37 to looped/cyclic peptides of protein X1 of SARS-CoV Urbani / Binding of serum 6 to linear peptides of protein X2 / Binding of serum 37 to linear peptides of protein X2 / Binding of serum 37 to looped/cyclic peptides of protein X2 of SARS-CoV Urbani / Binding of serum 6 to linear peptides of protein M of SARS-CoV Urbani / Binding of serum 37 to linear peptides of protein M of SARS-CoV Urbani / Binding of serum 6 to looped/cyclic peptides of protein M of SARS-CoV Urbani / Binding of serum 37 to looped/cyclic peptides of protein M of SARS-CoV Urbani / Binding of serum 6 to linear peptides of protein X3 of SARS-CoV Urbani / Binding of serum 37 to linear peptides of protein X3 of SARS-CoV Urbani / Binding of serum 37 to looped/cyclic peptides of protein X3 of SARS-CoV Urbani / Binding of serum 6 to linear peptides of protein X4 of SARS-CoV Urbani / Binding of serum 37 to linear peptides of protein X4 of SARS-CoV Urbani / Binding of serum 37 to looped/cyclic peptides of protein X4 of SARS-CoV Urbani / Binding of serum 6 to linear peptides of protein X5 of SARS-CoV Urbani / Binding of serum 37 to linear peptides of protein X5 of SARS-CoV Urbani / Binding of serum 37 to looped/cyclic peptides of protein X5 of SARS-CoV Urbani / Binding of serum 6 to linear peptides of protein N of SARS-CoV Urbani / Binding of serum 37 to linear peptides of protein N of SARS-CoV Urbani / Binding of serum 6 to linear peptide (PEPSCAN-ELISA) / Binding of serum 1a to looped/cyclic peptides of protein N of SARS-CoV Urbani / Binding of serum 1b to looped/cyclic peptides of protein N of SARS-CoV Urbani / Binding of serum 2 to looped/cyclic peptides of protein N of SARS-CoV Urbani / Binding of serum 6 to looped/cyclic peptides of protein N of SARS-CoV Urbani / Binding of serum 37 to looped/cyclic peptides of protein N of SARS-CoV Urbani / Binding of serum 62 to looped/cyclic peptides of protein N of SARS-CoV Urbani / Binding of serum London to looped/cyclic peptides of protein N of SARS-CoV Urbani / Binding of serum SARS-green to looped/cyclic peptides of protein N of SARS-CoV Urbani: unit not given here
# [2] = system: control sera (pooled serum of ten healthy LUMC hospital workers; commercial negative donor pooled serum from the Dutch bloodbank); assay type: binding, human; parameters: Binding of Control serum LUMC to linear peptides / Binding of Control serum Blood-bank to linear peptides / Binding of Control serum LUMC to looped peptides / Binding of Control Serum Blood-Bank to Looped peptides / Binding of Control serum LUMC to linear peptides of the protein M of SARS-CoV Urbani / Binding of Control serum Blood-bank to linear peptides of the protein M of SARS-CoV Urbani / Binding of Control serum LUMC to looped peptides of the protein M of SARS-CoV Urbani / Binding of Control Serum Blood-Bank to Looped peptides of the protein M of SARS-CoV Urbani: unit not given here
# [3] = system: rabbit serum obtained by immunizing a rabbit with the SARS-CoV strain Frankfurt 1; assay type: binding; parameters: Binding of a rabbit serum to linear peptides / Binding of a rabbit serum to looped peptides / Rabbit serum linear peptides / Rabbit serum looped peptides / Binding of a rabbit serum to linear peptides of protein N of SARS-CoV Urbani (Rabbit serum linear peptides) / Binding of a rabbit serum to looped/cyclic peptides of protein N of SARS-CoV Urbani (Rabbit serum looped peptides): unit not given here
sequence,measurement,setting,value
WLLWPVTLACFVLAA,Binding of serum 1a to linear peptides of protein M of SARS-CoV Urbani,[1],0.6
same,Binding of serum 1a to looped/cyclic peptides of protein M of SARS-CoV Urbani,[1],0.7
same,Binding of serum 1b to linear peptides of protein M of SARS-CoV Urbani,[1],0.5
same,Binding of serum 1b to looped/cyclic peptides of protein M of SARS-CoV Urbani,[1],0.3
same,Binding of serum 2 to linear peptides of protein M of SARS-CoV Urbani,[1],0.5
same,Binding of serum 2 to looped/cyclic peptides of protein M of SARS-CoV Urbani,[1],0.7
same,Binding of serum 6 to linear peptides of protein M of SARS-CoV Urbani,[1],0.4
same,Binding of serum 6 to looped/cyclic peptides of protein M of SARS-CoV Urbani,[1],0.5
same,Binding of serum 37 to linear peptides of protein M of SARS-CoV Urbani,[1],0.6
same,Binding of serum 37 to looped/cyclic peptides of protein M of SARS-CoV Urbani,[1],0.7
same,Binding of serum 62 to linear peptides of protein M of SARS-CoV Urbani,[1],0.6
same,Binding of serum 62 to looped/cyclic peptides of protein M of SARS-CoV Urbani,[1],0.7
same,Binding of serum London to linear peptides of protein M of SARS-CoV Urbani,[1],0.3
same,Binding of serum London to looped/cyclic peptides of protein M of SARS-CoV Urbani,[1],0.2
same,Binding of serum SARS-green to linear peptides of protein M of SARS-CoV Urbani,[1],0.3
same,Binding of serum SARS-green to looped/cyclic peptides of protein M of SARS-CoV Urbani,[1],0.3
same,Binding of serum SARS-yellow to linear peptides of protein M of SARS-CoV Urbani,[1],0.0
same,Binding of serum SARS-yellow to looped/cyclic peptides of protein M of SARS-CoV Urbani,[1],0.7
same,Binding of Control Serum Blood-Bank to Looped peptides of the protein M of SARS-CoV Urbani,[2],0.5
same,Binding of Control serum Blood-bank to linear peptides of the protein M of SARS-CoV Urbani,[2],0.4
same,Binding of Control serum LUMC to linear peptides of the protein M of SARS-CoV Urbani,[2],0.2
same,Binding of Control serum LUMC to looped peptides of the protein M of SARS-CoV Urbani,[2],0.6
same,Rabbit serum linear peptides,[3],0.3
same,Rabbit serum looped peptides,[3],0.3
IYFLQCINACRIIMR,Binding of serum 1a to linear peptides of protein X1 of SARS-CoV Urbani,[1],0.7
same,Binding of serum 1a to looped/cyclic peptide (PEPSCAN-ELISA),[1],0.6
same,Binding of serum 1b to linear peptides of protein X1 of SARS-CoV Urbani,[1],0.6
same,Binding of serum 1b to looped/cyclic peptide (PEPSCAN-ELISA),[1],0.4
same,Binding of serum 2 to linear peptides of protein X1 of SARS-CoV Urbani,[1],0.6
same,Binding of serum 2 to looped/cyclic peptide (PEPSCAN-ELISA),[1],0.8
same,Binding of serum 6 to linear peptides of protein X1 of SARS-CoV Urbani,[1],0.5
same,Binding of serum 6 to looped/cyclic peptide (PEPSCAN-ELISA),[1],1.0
same,Binding of serum 37 to linear peptides of protein X1 of SARS-CoV Urbani,[1],0.7
same,Binding of serum 37 to looped/cyclic peptide (PEPSCAN-ELISA),[1],0.6
same,Binding of serum 62 to linear peptides of protein X1 of SARS-CoV Urbani,[1],0.7
same,Binding of serum 62 to looped/cyclic peptide (PEPSCAN-ELISA),[1],0.7
same,Binding of serum London to linear peptides of protein X1 of SARS-CoV Urbani,[1],0.3
same,Binding of serum London to looped/cyclic peptide (PEPSCAN-ELISA),[1],1.6
same,Binding of serum SARS-green to linear peptides of protein X1 of SARS-CoV Urbani,[1],0.2
same,Binding of serum SARS-green to looped/cyclic peptide (PEPSCAN-ELISA),[1],0.2
same,Binding of serum SARS-yellow to linear peptides of protein X1 of SARS-CoV Urbani,[1],0.5
same,Binding of serum SARS-yellow to looped/cyclic peptide (PEPSCAN-ELISA),[1],0.6
same,Binding of Control Serum Blood-Bank to Looped peptides,[2],0.6
same,Binding of Control serum Blood-bank to linear peptides,[2],0.7
same,Binding of Control serum LUMC to linear peptides,[2],0.7
same,Binding of Control serum LUMC to looped peptides,[2],0.6
same,Binding of a rabbit serum to linear peptides,[3],0.5
same,Binding of a rabbit serum to looped peptides,[3],0.9
IILFLTLIVFTSCEL,Binding of serum 1a to linear peptides of protein X4 of SARS-CoV Urbani,[1],0.8
same,Binding of serum 1a to looped/cyclic peptides of protein X4 of SARS-CoV Urbani,[1],0.7
same,Binding of serum 1b to linear peptides of protein X4 of SARS-CoV Urbani,[1],0.8
same,Binding of serum 1b to looped/cyclic peptides of protein X4 of SARS-CoV Urbani,[1],0.1
same,Binding of serum 2 to linear peptides of protein X4 of SARS-CoV Urbani,[1],0.6
same,Binding of serum 2 to looped/cyclic peptides of protein X4 of SARS-CoV Urbani,[1],0.6
same,Binding of serum 6 to linear peptides of protein X4 of SARS-CoV Urbani,[1],0.5
same,Binding of serum 6 to looped/cyclic peptides of protein X4 of SARS-CoV Urbani,[1],0.5
same,Binding of serum 37 to linear peptides of protein X4 of SARS-CoV Urbani,[1],0.9
same,Binding of serum 37 to looped/cyclic peptides of protein X4 of SARS-CoV Urbani,[1],0.7
same,Binding of serum 62 to linear peptides of protein X4 of SARS-CoV Urbani,[1],0.8
same,Binding of serum 62 to looped/cyclic peptides of protein X4 of SARS-CoV Urbani,[1],0.7
same,Binding of serum London to linear peptides of protein X4 of SARS-CoV Urbani,[1],0.7
same,Binding of serum London to looped/cyclic peptides of protein X4 of SARS-CoV Urbani,[1],0.2
same,Binding of serum SARS-green to linear peptides of protein X4 of SARS-CoV Urbani,[1],0.6
same,Binding of serum SARS-green to looped/cyclic peptides of protein X4 of SARS-CoV Urbani,[1],0.4
same,Binding of serum SARS-yellow to linear peptides of protein X4 of SARS-CoV Urbani,[1],0.7
same,Binding of serum SARS-yellow to looped/cyclic peptides of protein X4 of SARS-CoV Urbani,[1],0.6
same,Binding of Control Serum Blood-Bank to Looped peptides,[2],0.7
same,Binding of Control serum Blood-bank to linear peptides,[2],0.7
same,Binding of Control serum LUMC to linear peptides,[2],0.9
same,Binding of Control serum LUMC to looped peptides,[2],0.6
same,Rabbit serum linear peptides,[3],0.8
same,Rabbit serum looped peptides,[3],0.5
